Assays:
[1] = test system: Haemophilus influenzae serotype b; experiment: PRP production in liquid wheat peptone-based culture medium as a function of heme source (sandwich ELISA on supernatant); format: cell-based; details: for Mean PRP / PRP in mg/l Assay 1 / PRP in mg/l Assay 2: wheat medium, 16 h
Description: (§1) The production of PRP obtained after 16 hours of bacterial culture in liquid plant peptones-based culture media in which the heme source was either hemin or protoporphyrin IX of animal origin (porcine protoporphyrin) in disodium salt form, or protoporphyrin IX of purely synthetic origin in disodium salt form was compared. The hemin and protoporphyrin IX concentration ranges in the culture media varied from about 0.010 g/l to about 2 g/l so as to obtain PRP titration curves as a function of the heme source tested and as a function of the plant peptone tested. An enzymatic hydrolysate of garden pea peptone provided by Kerry (Hy pea 7404) and a wheat peptone provided by Organotechnie (19559) were tested at a concentration in the culture medium equivalent to 0.87 g/l of protein nitrogen. By reference to the current methods for the production of PRP, PRP production was also measured in a medium that contains a peptone of animal origin, such as casein hydrolysate (HAC) provided by Solabia at a concentration in the medium equivalent to 0.87 g/l with increased concentrations of hemin (see table III).
(§2) 1.1) Preparation of the Media • 1.1.1. Stock solution of β-NAD (Fluka) at 1 g/l in water which was ultrafiltered and then sterilized by filtration through 0.22 μm. • 1.1.2. Stock solution of hemin (Sigma) at 0.25 g/l in water was ultrafiltered, comprising 5 ml of 25% aqueous ammonia (Cooper) to aid dissolution. The stock solution was sterilized by filtration through 0.22 μm. • 1.1.3. Stock solution of porcine protoporphyrin IX (Sigma) at 0.25 g/l in ultrafiltered water comprising 5 ml of 25% aqueous ammonia (Cooper) in order to facilitate the dissolution. The stock solution was sterilized by filtration through 0.22 μm. • 1.1.4. Stock solution of synthetic protoporphyrin IX at 0.25 g/l in ultrafiltered water comprising 5 ml of 25% aqueous ammonia (Cooper) in order to facilitate the dissolution. The stock solution was also heated to 80° C. in a water bath with stirring in order to complete the dissolution before being sterilized by filtration through 0.22 μm. The protoporphyrin IX, in disodium salt form, was synthesized according to the method described in the U.S. provisional patent application Ser. No. 12/057,574, filed Mar. 28, 2008 and application Ser. No. 60/943,735 and filed on Jun. 13, 2007 using the steps which are described in scheme 2. • The stock solutions of hemin and protoporphyrin IX were checked for their respective contents of active compounds after sterilizing filtration. The protoporphyrin IX and hemin contents were determined by Reversed Phase High Performance Liquid Chromatography (RP-HPLC). The chromatographic chain comprises a twin head pump module allowing the formation of a binary gradient, a programmable automatic injector, a diode array UV detector and a chromatographic column of the type Synergi 4 μm, Polar RP-80A (150×4.6) mm, ref 00F-4336-E0, Phenomenex. • The stock solution of hemin (Sigma) to be checked after filtration was diluted ⅓ in distilled water. The stock solutions of porcine protoporphyrin IX (Sigma) and of synthetic protoporphyrin IX to be checked after filtration were diluted ¼ in distilled water. In parallel, a calibration series was prepared in ammoniated water ranging from 0.025 g/l to 0.125 g/l of protoporphyrin IX from porcine protoporphyrin IX from Sigma (ref: 25838-5) and a calibration series ranging from 0.050 g/l to 0.150 g/l of hemin from hemin from Sigma (ref: H5533-256). The samples to be checked and the various solutions of the calibration series were injected in a volume of 20 μl (for the hemin solutions and samples) and of 5 μl (for the protoporphyrin IX solutions and samples). The initial mobile phase consisting of a volume for volume mixture of acetonitrile and 10 mM KH2PO4 pH 2.5 is set at a flow rate of 1 ml/min. A discontinuous gradient was then produced from this mobile phase in order to separate the molecules of interest which are detected at a wavelength of 400 nm. […]

[2] = test system: Haemophilus influenzae serotype b; experiment: PRP production in liquid garden pea peptone-based culture medium as a function of heme source (sandwich ELISA on supernatant); format: cell-based; details: for Mean PRP / PRP in mg/l Assay 1 / PRP in mg/l Assay 2: garden pea medium, 16 h
Description: as §1, with “The hemin and protoporphyrin IX concentration ranges in the culture media varied from about 0.010 g/l to about 2 g/l so as to obtain PRP titration curves as a function of the heme source tested and as a function of the plant peptone tested.” left out
as §2

## C=CC1=C(C)c2cc3[n-]c(cc4nc(cc5[n-]c(cc1n2)c(C)c5CCC(=O)O)C(CCC(=O)O)=C4C)c(C)c3C=C.[Cl-].[Fe+3] [Hemin, hemin, reference compound]
[1]; hemin 11.8 μg/l
  Mean PRP: 5.3 mg/L
  PRP in mg/l Assay 1: 4.98 mg/L
  PRP in mg/l Assay 2: 5.61 mg/L
[1]; hemin 59 μg/l
  Mean PRP: 13.35 mg/L
  PRP in mg/l Assay 1: 13 mg/L
  PRP in mg/l Assay 2: 13.7 mg/L
[1]; hemin 118 μg/l
  Mean PRP: 17.60 mg/L
  PRP in mg/l Assay 1: 17.7 mg/L
  PRP in mg/l Assay 2: 17.5 mg/L
[1]; hemin 295 μg/l
  Mean PRP: 32.75 mg/L
  PRP in mg/l Assay 1: 35.3 mg/L
  PRP in mg/l Assay 2: 30.2 mg/L
[1]; hemin 590 μg/l
  Mean PRP: 72.4 mg/L
  PRP in mg/l Assay 1: 71.4 mg/L
  PRP in mg/l Assay 2: 73.4 mg/L
[1]; hemin 1180 μg/l
  Mean PRP: 291.5 mg/L
  PRP in mg/l Assay 1: 327 mg/L
  PRP in mg/l Assay 2: 256 mg/L
[1]; hemin 1770 μg/l
  Mean PRP: 466.5 mg/L
  PRP in mg/l Assay 1: 487 mg/L
  PRP in mg/l Assay 2: 446 mg/L
[1]; hemin 2360 μg/l
  Mean PRP: 495.5 mg/L
  PRP in mg/l Assay 1: 487 mg/L
  PRP in mg/l Assay 2: 504 mg/L
[1]; wheat peptone medium (FIG. 2)
  heme source concentration required for optimum / equivalent PRP production: about 1500 μg/l
[2]; hemin 11.8 μg/l
  Mean PRP: 4 mg/L
  PRP in mg/l Assay 1: 3.82 mg/L
  PRP in mg/l Assay 2: 3.79 mg/L
[2]; hemin 59 μg/l
  Mean PRP: 7 mg/L
  PRP in mg/l Assay 1: 7.61 mg/L
  PRP in mg/l Assay 2: 7.13 mg/L
[2]; hemin 118 μg/l
  Mean PRP: 20 mg/L
  PRP in mg/l Assay 1: 23.4 mg/L
  PRP in mg/l Assay 2: 17.5 mg/L
[2]; hemin 295 μg/l
  Mean PRP: 48 mg/L
  PRP in mg/l Assay 1: 51.2 mg/L
  PRP in mg/l Assay 2: 45.4 mg/L
[2]; hemin 590 μg/l
  Mean PRP: 84 mg/L
  PRP in mg/l Assay 1: 95.4 mg/L
  PRP in mg/l Assay 2: 72.9 mg/L
[2]; hemin 1180 μg/l
  Mean PRP: 233 mg/L
  PRP in mg/l Assay 1: 234 mg/L
  PRP in mg/l Assay 2: 232 mg/L
[2]; hemin 1770 μg/l
  Mean PRP: 210 mg/L
  PRP in mg/l Assay 1: 209 mg/L
  PRP in mg/l Assay 2: 211 mg/L
[2]; hemin 2360 μg/l
  Mean PRP: 494 mg/L
  PRP in mg/l Assay 1: 505 mg/L
  PRP in mg/l Assay 2: 482 mg/L
[2]; hemin 3540 μg/l
  Mean PRP: 142 mg/L
  PRP in mg/l Assay 1: 129 mg/L
  PRP in mg/l Assay 2: 154 mg/L
[2]; garden pea peptone medium (FIG. 1)
  heme source concentration required for optimum / maximum PRP production: about 2500 μg/l
[2]; plant peptone medium, heme source at 10 μg/l
  production of PRP (in words): insignificant
[2]; plant peptone medium, heme source at 50 μg/l (FIGS. 1 and 2)
  production of PRP: ≤ 10 µg/L

Reference: US8673617B2, “Culture medium for Haemophilus influenzae type B” (Sanofi Pasteur SA, priority 2007, dated 2014)
